What was measured:
[1] = tested on: Mycobacterium tuberculosis variant bovis; experiment: Antimycobacterial activity against Mycobacterium bovis; assay type: functional
[2] = tested on: Mycobacterium tuberculosis variant bovis; experiment: Antimycobacterial activity against Mycobacterium bovis BCG; assay type: functional

Row | SMILES | IC [1] [µg/mL] | IC [2] [µg/mL]
1 | C1=C\CCCCN2C[C@H]3CCCC/C=C\CCCCN4CC[C@@H]([C@H](CCCCCC/1)C4)[C@H](C3)C2 | 2.5 | 
2 | C1=C\CCCC[C@@H]2CN3CCCC/C=C\CCCC[C@H]4C[C@H](CN(CCCCCC/1)C4)[C@H]2CC3 | 1 | 
3 | C(=N\Nc1nncs1)/c1c[nH]c2ccccc12 |  | 7.81
4 | OC1CCCC/C=C\CCCC[C@@H]2CN3CCCC/C=C\CCCC[C@H]4C[C@H](CN(C1)C4)[C@H]2CC3 (some centres undefined) | 12.5 | 

— ChEMBL document CHEMBL5260811, “Drug development against tuberculosis: Impact of alkaloids” (Eur J Med Chem, 2017)
